# Measured values as given in PMC6825211 (Nature Communications, 2019).
# Values joined by “and” are separate entries in the source; they are usually repeats but may differ in a detail not shown here. Equal values may be shown once.
# What was measured:
# CK1-EPSILON = CK1-EPSILON (Homo sapiens, UniProt P49674); experiment: Nanosyn kinase profiling, mobility shift assay; settings: read-out: % inhibition by neratinib
# [1] = clinical trials; cited from earlier work
# PIM-1-KINASE = PIM-1-KINASE (Homo sapiens, UniProt P11309); experiment: Nanosyn kinase profiling, mobility shift assay; settings: read-out: % inhibition by neratinib
# PIM-1-KINASE, sequence (P11309 whole entry): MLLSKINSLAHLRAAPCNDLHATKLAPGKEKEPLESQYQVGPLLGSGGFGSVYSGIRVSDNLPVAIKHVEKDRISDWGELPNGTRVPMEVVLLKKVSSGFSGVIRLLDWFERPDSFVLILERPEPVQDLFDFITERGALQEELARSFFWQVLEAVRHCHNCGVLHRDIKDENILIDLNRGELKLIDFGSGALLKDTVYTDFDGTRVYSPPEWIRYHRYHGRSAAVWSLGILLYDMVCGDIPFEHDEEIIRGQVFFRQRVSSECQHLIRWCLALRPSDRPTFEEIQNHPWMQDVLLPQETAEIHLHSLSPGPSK
# PAK3 = PAK3 (Homo sapiens, UniProt O75914); experiment: Nanosyn kinase profiling, mobility shift assay; assay type: biochemical; settings: 12 points dose response
# PAK3, sequence (O75914 whole entry, species assumed): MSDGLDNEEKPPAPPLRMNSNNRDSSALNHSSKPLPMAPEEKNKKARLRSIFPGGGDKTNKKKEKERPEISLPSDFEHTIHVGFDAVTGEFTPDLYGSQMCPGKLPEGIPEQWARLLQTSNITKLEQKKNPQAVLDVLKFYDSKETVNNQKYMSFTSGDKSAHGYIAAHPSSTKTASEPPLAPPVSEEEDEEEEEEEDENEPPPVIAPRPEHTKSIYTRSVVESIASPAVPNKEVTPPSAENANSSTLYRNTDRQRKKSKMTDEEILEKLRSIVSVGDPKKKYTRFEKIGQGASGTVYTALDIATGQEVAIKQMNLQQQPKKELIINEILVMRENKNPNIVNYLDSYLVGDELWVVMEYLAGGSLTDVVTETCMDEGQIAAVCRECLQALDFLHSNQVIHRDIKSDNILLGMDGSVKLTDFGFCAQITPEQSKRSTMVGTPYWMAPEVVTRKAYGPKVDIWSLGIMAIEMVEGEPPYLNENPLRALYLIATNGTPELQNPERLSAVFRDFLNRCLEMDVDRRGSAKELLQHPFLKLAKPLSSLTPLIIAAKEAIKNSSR
# Protocol: (§1) inhibition was determined for each assay.
# PHK1 = molecular target: T1, PHK1 (Homo sapiens, UniProt Q16816); experiment: Nanosyn kinase profiling, mobility shift assay; assay type: biochemical; settings: 12 points dose response
# T1 construct: Nanosyn (assay service)
# T1 sequence (Q16816 whole entry): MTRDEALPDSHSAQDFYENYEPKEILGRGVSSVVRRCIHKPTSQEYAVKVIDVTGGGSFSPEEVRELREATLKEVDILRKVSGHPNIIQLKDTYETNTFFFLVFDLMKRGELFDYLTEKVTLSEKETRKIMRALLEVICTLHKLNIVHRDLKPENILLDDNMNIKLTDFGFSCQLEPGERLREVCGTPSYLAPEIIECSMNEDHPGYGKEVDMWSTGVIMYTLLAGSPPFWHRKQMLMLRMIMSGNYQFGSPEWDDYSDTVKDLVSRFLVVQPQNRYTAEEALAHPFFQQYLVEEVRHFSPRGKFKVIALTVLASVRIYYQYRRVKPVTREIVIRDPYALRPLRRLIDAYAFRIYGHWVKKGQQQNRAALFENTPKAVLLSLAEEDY
# Protocol: as §1
# MAP4K2 = MAP4K2 (Homo sapiens, UniProt Q12851); experiment: Nanosyn kinase profiling, mobility shift assay; assay type: biochemical; settings: 12 points dose response
# MAP4K2, sequence (Q12851 whole entry, species assumed): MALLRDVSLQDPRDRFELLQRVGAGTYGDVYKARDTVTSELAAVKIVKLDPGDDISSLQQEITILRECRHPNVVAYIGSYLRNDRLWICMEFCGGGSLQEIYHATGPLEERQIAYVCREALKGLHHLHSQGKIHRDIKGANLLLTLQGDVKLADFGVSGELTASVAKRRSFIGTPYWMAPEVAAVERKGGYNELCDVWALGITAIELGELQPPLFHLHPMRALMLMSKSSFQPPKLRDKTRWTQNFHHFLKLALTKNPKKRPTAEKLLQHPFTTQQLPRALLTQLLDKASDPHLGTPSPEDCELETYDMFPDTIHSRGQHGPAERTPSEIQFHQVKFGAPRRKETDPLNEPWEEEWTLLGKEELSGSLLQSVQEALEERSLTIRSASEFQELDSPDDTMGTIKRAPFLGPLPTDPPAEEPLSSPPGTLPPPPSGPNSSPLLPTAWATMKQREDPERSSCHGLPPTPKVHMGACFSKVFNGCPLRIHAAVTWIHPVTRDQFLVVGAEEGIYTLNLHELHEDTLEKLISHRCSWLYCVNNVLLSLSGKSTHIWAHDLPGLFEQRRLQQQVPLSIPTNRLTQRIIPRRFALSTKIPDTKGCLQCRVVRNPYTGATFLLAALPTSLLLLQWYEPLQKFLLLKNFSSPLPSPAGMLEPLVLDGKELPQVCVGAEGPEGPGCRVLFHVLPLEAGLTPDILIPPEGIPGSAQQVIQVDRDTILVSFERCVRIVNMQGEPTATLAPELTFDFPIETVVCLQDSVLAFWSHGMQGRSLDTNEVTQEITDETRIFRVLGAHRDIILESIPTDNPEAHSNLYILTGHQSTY
# Protocol: as §1
# HIPK1 = molecular target: T2, HIPK1 (Homo sapiens, UniProt Q86Z02); experiment: Nanosyn kinase profiling, mobility shift assay; assay type: biochemical; settings: 12 points dose response
# T2 construct: Nanosyn (assay service)
# Protocol: as §1
# PAK5 = molecular target: T3, PAK5 (Homo sapiens, UniProt Q9P286); experiment: Nanosyn kinase profiling, mobility shift assay; assay type: biochemical; settings: 12 points dose response
# T3 construct: Nanosyn (assay service)
# T3 sequence (Q9P286 whole entry): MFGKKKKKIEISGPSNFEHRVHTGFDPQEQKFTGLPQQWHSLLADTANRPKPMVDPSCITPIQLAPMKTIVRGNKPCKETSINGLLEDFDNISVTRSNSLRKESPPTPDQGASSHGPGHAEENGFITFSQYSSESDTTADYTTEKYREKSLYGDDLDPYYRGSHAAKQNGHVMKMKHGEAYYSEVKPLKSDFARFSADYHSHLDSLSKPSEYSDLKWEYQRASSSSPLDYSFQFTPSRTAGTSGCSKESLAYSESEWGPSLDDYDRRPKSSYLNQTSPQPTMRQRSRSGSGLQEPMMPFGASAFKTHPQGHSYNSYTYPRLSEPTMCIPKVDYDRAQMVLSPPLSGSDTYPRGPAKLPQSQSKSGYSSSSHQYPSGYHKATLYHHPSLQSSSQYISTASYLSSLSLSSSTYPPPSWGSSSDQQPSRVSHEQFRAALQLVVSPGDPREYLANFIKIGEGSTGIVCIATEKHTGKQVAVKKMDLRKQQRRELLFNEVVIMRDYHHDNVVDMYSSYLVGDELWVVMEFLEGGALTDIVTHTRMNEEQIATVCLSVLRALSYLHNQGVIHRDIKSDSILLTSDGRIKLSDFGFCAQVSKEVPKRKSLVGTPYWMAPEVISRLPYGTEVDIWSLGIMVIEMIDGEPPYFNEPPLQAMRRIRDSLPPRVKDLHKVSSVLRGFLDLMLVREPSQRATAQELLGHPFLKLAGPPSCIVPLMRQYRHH
# Protocol: as §1
# CHEK2 = molecular target: T4, CHEK2 (Homo sapiens, UniProt O96017); experiment: Nanosyn kinase profiling, mobility shift assay; assay type: biochemical; settings: 12 points dose response
# T4 construct: Nanosyn (assay service)
# T4 sequence (O96017 whole entry, species assumed): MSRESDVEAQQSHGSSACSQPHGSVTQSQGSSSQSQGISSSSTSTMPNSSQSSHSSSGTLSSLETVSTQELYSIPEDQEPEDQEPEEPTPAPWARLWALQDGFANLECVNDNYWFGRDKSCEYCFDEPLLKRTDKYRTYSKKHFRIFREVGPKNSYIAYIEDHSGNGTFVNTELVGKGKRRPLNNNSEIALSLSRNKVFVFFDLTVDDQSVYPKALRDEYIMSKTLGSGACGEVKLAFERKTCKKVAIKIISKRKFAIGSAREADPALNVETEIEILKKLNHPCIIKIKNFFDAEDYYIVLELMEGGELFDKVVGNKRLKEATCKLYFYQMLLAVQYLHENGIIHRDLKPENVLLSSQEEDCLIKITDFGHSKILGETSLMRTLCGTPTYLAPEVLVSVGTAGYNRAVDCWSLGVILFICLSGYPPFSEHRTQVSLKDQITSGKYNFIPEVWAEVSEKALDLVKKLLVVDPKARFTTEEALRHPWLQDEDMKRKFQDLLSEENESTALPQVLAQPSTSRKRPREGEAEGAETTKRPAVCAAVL
# Protocol: as §1
# MST3 = molecular target: T5, MST3 (Homo sapiens, UniProt Q9Y6E0); experiment: Nanosyn kinase profiling, mobility shift assay; assay type: biochemical; settings: 12 points dose response
# T5 construct: Nanosyn (assay service)
# T5 sequence (Q9Y6E0 whole entry, species assumed): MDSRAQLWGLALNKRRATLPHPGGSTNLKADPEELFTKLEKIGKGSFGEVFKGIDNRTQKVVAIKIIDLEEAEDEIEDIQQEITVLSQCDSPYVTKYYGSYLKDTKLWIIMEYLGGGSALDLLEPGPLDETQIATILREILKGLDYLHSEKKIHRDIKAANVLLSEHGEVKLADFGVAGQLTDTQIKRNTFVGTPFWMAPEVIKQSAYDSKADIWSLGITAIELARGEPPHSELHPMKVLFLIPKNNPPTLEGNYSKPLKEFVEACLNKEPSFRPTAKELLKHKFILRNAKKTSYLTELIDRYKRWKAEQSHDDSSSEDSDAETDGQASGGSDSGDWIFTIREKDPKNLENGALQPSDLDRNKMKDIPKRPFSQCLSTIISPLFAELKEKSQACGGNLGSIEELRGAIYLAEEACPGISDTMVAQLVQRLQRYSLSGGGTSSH
# Protocol: as §1
# PAK6 = molecular target: T6, PAK6 (Homo sapiens, UniProt Q9NQU5); experiment: Nanosyn kinase profiling, mobility shift assay; assay type: biochemical; settings: 12 points dose response
# T6 construct: Nanosyn (assay service)
# Protocol: as §1
# AXL = molecular target: T7, AXL (Homo sapiens, UniProt P30530); experiment: Nanosyn kinase profiling, mobility shift assay; assay type: biochemical; settings: 12 points dose response
# T7 construct: Nanosyn (assay service)
# T7 sequence (P30530 26-894, species assumed): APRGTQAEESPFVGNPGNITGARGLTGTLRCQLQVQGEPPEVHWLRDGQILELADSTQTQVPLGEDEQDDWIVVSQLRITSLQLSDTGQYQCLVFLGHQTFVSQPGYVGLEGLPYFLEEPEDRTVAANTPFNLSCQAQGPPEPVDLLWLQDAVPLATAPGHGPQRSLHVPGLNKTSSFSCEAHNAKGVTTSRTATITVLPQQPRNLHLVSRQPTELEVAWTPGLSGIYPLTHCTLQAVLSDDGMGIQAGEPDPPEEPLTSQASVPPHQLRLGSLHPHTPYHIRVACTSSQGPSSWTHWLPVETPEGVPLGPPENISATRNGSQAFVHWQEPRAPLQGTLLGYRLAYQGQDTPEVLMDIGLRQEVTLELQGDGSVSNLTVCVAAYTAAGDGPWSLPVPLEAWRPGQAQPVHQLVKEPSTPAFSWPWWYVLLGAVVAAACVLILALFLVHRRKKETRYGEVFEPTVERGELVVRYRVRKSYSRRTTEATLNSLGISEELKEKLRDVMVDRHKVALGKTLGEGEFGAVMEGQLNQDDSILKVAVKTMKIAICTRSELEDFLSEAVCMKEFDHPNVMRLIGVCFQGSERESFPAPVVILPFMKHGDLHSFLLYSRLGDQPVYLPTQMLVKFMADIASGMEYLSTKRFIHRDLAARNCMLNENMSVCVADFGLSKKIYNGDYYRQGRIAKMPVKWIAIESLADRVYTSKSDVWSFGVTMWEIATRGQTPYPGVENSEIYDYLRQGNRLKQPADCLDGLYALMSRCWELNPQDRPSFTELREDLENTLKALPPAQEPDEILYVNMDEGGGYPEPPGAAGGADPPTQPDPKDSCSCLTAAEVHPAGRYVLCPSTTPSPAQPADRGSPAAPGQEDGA
# Protocol: as §1
# [2] = Pharmacokinetic study, single i.p. dose; settings: for AUC(0-inf): AUCINF
# PDGFR-ALPHA = PDGFR-ALPHA (Homo sapiens, UniProt P16234); experiment: Nanosyn kinase profiling, mobility shift assay; settings: read-out: % inhibition by neratinib
# MLD–STZ C57BL/6J mice = experiment: MLD–STZ model: intraperitoneal insulin tolerance test (ipITT); assay type: in vivo, mouse; parameters: ipITT glucose: unit not given here
# Protocol: C57Bl/6J mice were injected with 40 mg/kg streptozotocin or citrate buffer for 5 consecutive days. […] In d, basal glucose values were normalized to 100%. e Insulin secretion measured from retro-orbital blood draw during an ipGTT measured before (0 min) and 15 min after glucose injection; data are expressed as the ratio of secreted insulin at 15 min/0 min (stimulatory index). f The ratio of secreted insulin and glucose is calculated at fed state. g–i Mice were killed at day 35. g β-cell mass (given as percentage of the whole pancreatic section from ten sections spanning the width of the pancreas) and quantitative analyses from triple staining for h TUNEL or i Ki67, insulin, and DAPI expressed as percentage of TUNEL- or Ki67-positive β-cells ±SEM. An average number of 2331 (h), or 26369 (i) β-cells were counted. n = 9 mice/group for (a); n = 4–12 for (b); n = 5–15 for (c) and (d); n = 12–19 for (e); n = 8–14 for (f); n = 4–9 for (g); n = 4–11 for (h); and n = 6–11 mice/groupfor (i); all from three independent experiments).
# For intraperitoneal glucose tolerance tests, mice were fasted 12 h overnight and injected i.p. with glucose (40%; B.Braun, Melsungen, Germany) at a dose of 1 g/kg body weight. Blood samples were obtained at time points 0, 15, 30, 60, 90, and 120 min for glucose measurements by using a Glucometer. For i.p. insulin tolerance tests, mice were injected with 0.75 U/kg body weight recombinant human insulin (Novolin, Novo Nordisk) after 4–5-h fasting, and glucose concentration was determined with the Glucometer. Insulin secretion was measured before (0 min) and after (15 and 30 min) i.p. injection of glucose (2 g/kg) and measured by using ultrasensitive mouse Elisa kit (ALPCO Diagnostics, Salem, NH).
# [3] = 5 mg/kg IP, individual animals 1-3
compound,measurement,setting,value
CCOc1cc2ncc(C#N)c(Nc3ccc(OCc4ccccn4)c(Cl)c3)c2cc1NC(=O)/C=C/CN(C)C [neratinib],inhibition at 10 µM,CK1-EPSILON,77%
same,most common neratinib-associated adverse events,[1],"diarrhea, vomiting, and nausea"
same,inhibition at 10 µM,PIM-1-KINASE,13%
same,IC50,PAK3,1500 nM
same,IC50,PHK1,5850 nM
same,IC50,MAP4K2,102 nM
same,IC50,HIPK1,> 20000 nM
same,IC50,PAK5,> 20000 nM
same,IC50,CHEK2,937 nM
same,IC50,MST3,5 nM
same,IC50,PAK6,> 20000 nM
same,IC50,AXL,185 nM
same,Cl,"[2]; 5 mg/kg IP, AVERAGE n=3",263.8 mL/min/kg
same,VD,"[2]; 5 mg/kg IP, AVERAGE n=3",58.9 L/kg
same,AUC0-24,[2]; [3],1.9671 µM·h and 2.1252 µM·h
same,AUCINF,[2]; [3],2.1537 µM·h and 2.2985 µM·h
same,AUCLAST,[2]; [3],1.9671 µM·h and 2.1252 µM·h
same,Cl,[2]; [3],253.1 mL/min/kg and 277.9 mL/min/kg and 260.4 mL/min/kg
same,Cmax,[2]; [3],557 nM and 623 nM
same,MRT,[2]; [3],2.3 h
same,Tmax,[2]; [3],1.0 h
same,VD,[2]; [3],86.9 L/kg and 46.7 L/kg and 43.1 L/kg
same,t1/2,[2]; [3],4.0 hr and 1.9 hr (2×)
same,maximum concentration,"[2]; 5 mg/kg single i.p. dose, plasma, fasted mice",306 ng/mL
same,AUC(0-t),"[2]; mouse, plasma, ip, 5 mg/kg, AUC0-24, 5 mg/kg IP, AVERAGE n=3",1.9 µM·h
same,AUC(0-t),"[2]; mouse, plasma, ip, 5 mg/kg, AUC0-24, 5 mg/kg IP, individual animals 1-3",1.62 µM·h
same,AUC(0-inf),"[2]; mouse, plasma, ip, 5 mg/kg, 5 mg/kg IP, AVERAGE n=3",2.27 µM·h
same,AUC(0-inf),"[2]; mouse, plasma, ip, 5 mg/kg, 5 mg/kg IP, individual animals 1-3",2.36 µM·h
same,AUC(0-t),"[2]; mouse, plasma, ip, 5 mg/kg, AUCLAST, 5 mg/kg IP, AVERAGE n=3",1.9 µM·h
same,AUC(0-t),"[2]; mouse, plasma, ip, 5 mg/kg, AUCLAST, 5 mg/kg IP, individual animals 1-3",1.62 µM·h
same,Cmax,"[2]; mouse, plasma, ip, 5 mg/kg, Cmax, 5 mg/kg IP, AVERAGE n=3",549 nM
same,Cmax,"[2]; mouse, plasma, ip, 5 mg/kg, Cmax, 5 mg/kg IP, individual animals 1-3",469 nM
same,MRT,"[2]; mouse, plasma, ip, 5 mg/kg, MRT, 5 mg/kg IP, AVERAGE n=3",2.4 h
same,MRT,"[2]; mouse, plasma, ip, 5 mg/kg, MRT, 5 mg/kg IP, individual animals 1-3",2.7 h
same,Tmax,"[2]; mouse, plasma, ip, 5 mg/kg, Tmax, 5 mg/kg IP, AVERAGE n=3",0.7 h
same,Tmax,"[2]; mouse, plasma, ip, 5 mg/kg, Tmax, 5 mg/kg IP, individual animals 1-3",0.5 h
same,half-life,"[2]; mouse, plasma, ip, 5 mg/kg, t1/2, 5 mg/kg IP, AVERAGE n=3",2.6 h
same,Tmax,"[2]; mouse, plasma, ip, 5 mg/kg, time of maximum concentration post dosing, 5 mg/kg single i.p. dose, average",0.67 h
same,inhibition at 10 µM,PDGFR-ALPHA,31%
same,insulin sensitivity (normalized glucose levels),MLD–STZ C57BL/6J mice; MLD–STZ study,neither neratinib nor STZ had a significant effect
same,ipITT glucose,"MLD–STZ C57BL/6J mice; NeraCtr, 0 min, Mean",130.4
same,"ipITT glucose normalized to 100, MEAN","MLD–STZ C57BL/6J mice; NeraCtr, 0 min after ins",100
same,ipITT glucose,"MLD–STZ C57BL/6J mice; NeraCtr, 0 min after ins, individual mice",135 and 120 and 117 and 132 and 148
same,ipITT glucose,"MLD–STZ C57BL/6J mice; NeraCtr, 15 min, Mean",84.6
same,"ipITT glucose normalized to 100, MEAN","MLD–STZ C57BL/6J mice; NeraCtr, 15 min after ins",64.88
same,ipITT glucose,"MLD–STZ C57BL/6J mice; NeraCtr, 15 min after ins, individual mice",94 and 83 and 116 and 55 and 75
same,ipITT glucose,"MLD–STZ C57BL/6J mice; NeraCtr, 30 min, Mean",84.4
same,"ipITT glucose normalized to 100, MEAN","MLD–STZ C57BL/6J mice; NeraCtr, 30 min after ins",64.72
same,ipITT glucose,"MLD–STZ C57BL/6J mice; NeraCtr, 30 min after ins, individual mice",80 and 67 and 123 and 71 and 81
same,ipITT glucose,"MLD–STZ C57BL/6J mice; NeraCtr, 60 min, Mean",82.8
same,"ipITT glucose normalized to 100, MEAN","MLD–STZ C57BL/6J mice; NeraCtr, 60 min after ins",63.5
same,ipITT glucose,"MLD–STZ C57BL/6J mice; NeraCtr, 60 min after ins, individual mice",84 and 80 and 121 and 48 and 81
same,ipITT glucose,"MLD–STZ C57BL/6J mice; NeraCtr, 90 min, Mean",89
same,"ipITT glucose normalized to 100, MEAN","MLD–STZ C57BL/6J mice; NeraCtr, 90 min after ins",68.25
same,ipITT glucose,"MLD–STZ C57BL/6J mice; NeraCtr, 90 min after ins, individual mice",90 and 87 and 129 and 52
same,ipITT glucose,"MLD–STZ C57BL/6J mice; NeraSTZ, 0 min, Mean",286.636
same,"ipITT glucose normalized to 100, MEAN","MLD–STZ C57BL/6J mice; NeraSTZ, 0 min after ins",100
same,ipITT glucose,"MLD–STZ C57BL/6J mice; NeraSTZ, 0 min after ins, individual mice",462 and 369 and 228 and 215 and 295 and 196 and 335 and 337 and 212 and 296 and 208
same,ipITT glucose,"MLD–STZ C57BL/6J mice; NeraSTZ, 15 min, Mean",267.636
same,"ipITT glucose normalized to 100, MEAN","MLD–STZ C57BL/6J mice; NeraSTZ, 15 min after ins",93.37
same,ipITT glucose,"MLD–STZ C57BL/6J mice; NeraSTZ, 15 min after ins, individual mice",244 and 341 and 151 and 180 and 262 and 206 and 353 and 362 and 225 and 333 and 287
same,ipITT glucose,"MLD–STZ C57BL/6J mice; NeraSTZ, 30 min, Mean",187.273
same,"ipITT glucose normalized to 100, MEAN","MLD–STZ C57BL/6J mice; NeraSTZ, 30 min after ins",65.33
same,ipITT glucose,"MLD–STZ C57BL/6J mice; NeraSTZ, 30 min after ins, individual mice",114 and 186 and 102 and 127 and 207 and 173 and 304 and 307 and 97 and 216 and 227
same,ipITT glucose,"MLD–STZ C57BL/6J mice; NeraSTZ, 60 min, Mean",132.545
same,"ipITT glucose normalized to 100, MEAN","MLD–STZ C57BL/6J mice; NeraSTZ, 60 min after ins",46.24
same,ipITT glucose,"MLD–STZ C57BL/6J mice; NeraSTZ, 60 min after ins, individual mice",123 and 110 and 79 and 95 and 108 and 169 and 231 and 87 and 198 and 150
same,ipITT glucose,"MLD–STZ C57BL/6J mice; NeraSTZ, 90 min, Mean",132.455
same,"ipITT glucose normalized to 100, MEAN","MLD–STZ C57BL/6J mice; NeraSTZ, 90 min after ins",46.21
same,ipITT glucose,"MLD–STZ C57BL/6J mice; NeraSTZ, 90 min after ins, individual mice",174 and 97 and 79 and 135 and 116 and 100 and 155 and 203 and 103 and 136 and 159
